Measured values reported in paper PMC11124822, “Discovery and Anticancer Screening of Novel Oxindole-Based Derivative Bearing Pyridyl Group as Potent and Selective Dual FLT3/CDK2 Kinase Inhibitor” (Pharmaceuticals, 2024).

Columns and labels:
K-562 = assay: NCI-60 antiproliferative screen (SRB); format: cell-based, human; conditions: Homo sapiens, K562; 10 µM single dose, 48 h; K-562 (Leukemia); read-out: Growth inhibition (%)
HOP-62 = assay: NCI-60 antiproliferative screen (SRB); format: cell-based, human; conditions: Homo sapiens; 10 µM single dose, 48 h; HOP-62 (NSCLC); read-out: Growth inhibition (%)
HOP-92 = assay: NCI-60 antiproliferative screen (SRB); format: cell-based, human; conditions: Homo sapiens; 10 µM single dose, 48 h; HOP-92 (NSCLC); read-out: Growth inhibition (%)
NCI-H23 = assay: NCI-60 antiproliferative screen (SRB); format: cell-based, human; conditions: Homo sapiens; 10 µM single dose, 48 h; NCI-H23 (NSCLC); read-out: Growth inhibition (%)
NCI-H322M = assay: NCI-60 antiproliferative screen (SRB); format: cell-based, human; conditions: Homo sapiens; 10 µM single dose, 48 h; NCI-H322M (NSCLC); read-out: Growth inhibition (%)
COLO 205 = assay: NCI-60 antiproliferative screen (SRB); format: cell-based, human; conditions: Homo sapiens; 10 µM single dose, 48 h; COLO 205 (Colon); read-out: Growth inhibition (%)
HCC-2998 = assay: NCI-60 antiproliferative screen (SRB); format: cell-based, human; conditions: Homo sapiens; 10 µM single dose, 48 h; HCC-2998 (Colon); read-out: Growth inhibition (%)
HCT-116 = assay: NCI-60 antiproliferative screen (SRB); format: cell-based, human; conditions: Homo sapiens; 10 µM single dose, 48 h; HCT-116 (Colon); read-out: Growth inhibition (%)
HT29 = assay: NCI-60 antiproliferative screen (SRB); format: cell-based, human; conditions: Homo sapiens, HT-29; 10 µM single dose, 48 h; HT29 (Colon); read-out: Growth inhibition (%)
SW-620 = assay: NCI-60 antiproliferative screen (SRB); format: cell-based, human; conditions: Homo sapiens; 10 µM single dose, 48 h; SW-620 (Colon); read-out: Growth inhibition (%)
SF-295 = assay: NCI-60 antiproliferative screen (SRB); format: cell-based, human; conditions: Homo sapiens; 10 µM single dose, 48 h; SF-295 (CNS); read-out: Growth inhibition (%)
SF-539 = assay: NCI-60 antiproliferative screen (SRB); format: cell-based, human; conditions: Homo sapiens; 10 µM single dose, 48 h; SF-539 (CNS); read-out: Growth inhibition (%)
U251 = assay: NCI-60 antiproliferative screen (SRB); format: cell-based, human; conditions: Homo sapiens, U-251; 10 µM single dose, 48 h; U251 (CNS); read-out: Growth inhibition (%)
M14 = assay: NCI-60 antiproliferative screen (SRB); format: cell-based, human; conditions: Homo sapiens; 10 µM single dose, 48 h; M14 (Melanoma); read-out: Growth inhibition (%)
MDA-MB-435 = assay: NCI-60 antiproliferative screen (SRB); format: cell-based, human; conditions: Homo sapiens; 10 µM single dose, 48 h; MDA-MB-435 (Melanoma); read-out: Growth inhibition (%)
SK-MEL-2 = assay: NCI-60 antiproliferative screen (SRB); format: cell-based, human; conditions: Homo sapiens; 10 µM single dose, 48 h; SK-MEL-2 (Melanoma); read-out: Growth inhibition (%)
SK-MEL-5 = assay: NCI-60 antiproliferative screen (SRB); format: cell-based, human; conditions: Homo sapiens; 10 µM single dose, 48 h; SK-MEL-5 (Melanoma); read-out: Growth inhibition (%)
IGROV1 = assay: NCI-60 antiproliferative screen (SRB); format: cell-based, human; conditions: Homo sapiens, IGROV-1; 10 µM single dose, 48 h; IGROV1 (Ovarian); read-out: Growth inhibition (%)
NCI/ADR-RES = assay: NCI-60 antiproliferative screen (SRB); format: cell-based, human; conditions: Homo sapiens; 10 µM single dose, 48 h; NCI/ADR-RES (Ovarian); read-out: Growth inhibition (%)
786-0 = assay: NCI-60 antiproliferative screen (SRB); format: cell-based, human; conditions: Homo sapiens; 10 µM single dose, 48 h; 786-0 (Renal); read-out: Growth inhibition (%)
RXF 393 = assay: NCI-60 antiproliferative screen (SRB); format: cell-based, human; conditions: Homo sapiens; 10 µM single dose, 48 h; RXF 393 (Renal); read-out: Growth inhibition (%)
SN12C = assay: NCI-60 antiproliferative screen (SRB); format: cell-based, human; conditions: Homo sapiens; 10 µM single dose, 48 h; SN12C (Renal); read-out: Growth inhibition (%)
TK-10 = assay: NCI-60 antiproliferative screen (SRB); format: cell-based, human; conditions: Homo sapiens; 10 µM single dose, 48 h; TK-10 (Renal); read-out: Growth inhibition (%)
PC-3 = assay: NCI-60 antiproliferative screen (SRB); format: cell-based, human; conditions: Homo sapiens; 10 µM single dose, 48 h; PC-3 (Prostate); read-out: Growth inhibition (%)
MDA-MB-231 = assay: NCI-60 antiproliferative screen (SRB); format: cell-based, human; conditions: Homo sapiens; 10 µM single dose, 48 h; MDA-MB-231 (Breast); read-out: Growth inhibition (%)
HS 578T = assay: NCI-60 antiproliferative screen (SRB); format: cell-based, human; conditions: Homo sapiens; 10 µM single dose, 48 h; HS 578T (Breast); read-out: Growth inhibition (%)
T-47D = assay: NCI-60 antiproliferative screen (SRB); format: cell-based, human; conditions: Homo sapiens, T47D; 10 µM single dose, 48 h; T-47D (Breast); read-out: Growth inhibition (%)
[1] = tested on: NCI-60 human cancer cell lines; assay: NCI-60 screen, full panel summary; format: cell-based; conditions: 10 µM single dose; for Mean Growth Percent: all NCI-60 cell lines; for inhibition at 10 µM: Homo sapiens, read-out: Range of Growth Inhibition on All Cells
Method: In a comprehensive test, compounds were assayed at a single dose concentration (10^−5 M) in the full panel of NCI-60 cancer cell lines.

SNB-75 = assay: NCI-60 antiproliferative screen (SRB); conditions: Homo sapiens, SNB-75, 48 h, read-out: Growth inhibition (%)

SMILES | inhibition at 10 µM (K-562) [%] | inhibition at 10 µM (HOP-62) [%] | inhibition at 10 µM (HOP-92) [%] | inhibition at 10 µM (NCI-H23) [%] | inhibition at 10 µM (NCI-H322M) [%] | inhibition at 10 µM (COLO 205) [%] | inhibition at 10 µM (HCC-2998) [%] | inhibition at 10 µM (HCT-116) [%] | inhibition at 10 µM (HT29) [%] | inhibition at 10 µM (SW-620) [%] | inhibition at 10 µM (SF-295) [%] | inhibition at 10 µM (SF-539) [%] | inhibition at 10 µM (U251) [%] | inhibition at 10 µM (M14) [%] | inhibition at 10 µM (MDA-MB-435) [%] | inhibition at 10 µM (SK-MEL-2) [%] | inhibition at 10 µM (SK-MEL-5) [%] | inhibition at 10 µM (IGROV1) [%] | inhibition at 10 µM (NCI/ADR-RES) [%] | inhibition at 10 µM (786-0) [%] | further results
O=C1Nc2ccccc2C1=Cc1ccc(OCc2ccccc2)cc1 (mixture of isomers) [Compound 5a, (E/Z)-3-[4-(Benzyloxy)benzylidene] indolin-2-one] | 11.8 | -4.06 | -7 | -2.42 | 0.44 | -13.1 | -13.1 | 4.24 | -6.64 | -7.33 | -6.78 | -3.4 | -3.49 | 5.67 | -2.33 | -4.59 | 1.96 | -9.53 | -0.55 | 3.67 | inhibition at 10 µM (RXF 393): -16.2%; inhibition at 10 µM (SN12C): 6.16%; inhibition at 10 µM (TK-10): -8.25%; inhibition at 10 µM (PC-3): 5.85%; inhibition at 10 µM (MDA-MB-231): -10%; inhibition at 10 µM (HS 578T): -6.13%; inhibition at 10 µM (T-47D): 0.85%; Positive Cytostatic Effect (cell lines with percent growth from 0 to 50 / total number of cell lines) [1]: 0/59; Positive Cytotoxic Effect (cell lines with percent growth of <0 / total number of cell lines) [1]: 0/59; Sensitive/Total Cell Lines [1]: 0/59; antiproliferative activity (in words) [1]: weak antiproliferative activity; Mean Growth Percent [1]: −1.00; inhibition at 10 µM [1]: -16.2 to 15.8%; melting point: 220 to 223 °C; inhibition at 10 µM (SNB-75): 14.6%
O=C1Nc2ccc(Cl)cc2C1=Cc1ccc(OCc2ccccc2)cc1 (mixture of isomers) [Compound 5c, (E/Z)-3-[4-(Benzyloxy)benzylidene]-5-chloroindolin-2-one] | -0.34 | 3.77 | 9.75 | -1.96 | -0.07 | -6.62 | -3.96 | 3.41 | -2.95 | 1.08 | -11.1 | 4.12 | -1.54 | 7.34 | -3.79 | -0.35 | 1.9 | -5.14 | 1.88 | -2.86 | inhibition at 10 µM (RXF 393): -5.38%; inhibition at 10 µM (SN12C): 0.7%; inhibition at 10 µM (TK-10): -12.7%; inhibition at 10 µM (PC-3): 12.9%; inhibition at 10 µM (MDA-MB-231): -5.3%; inhibition at 10 µM (HS 578T): -2.25%; inhibition at 10 µM (T-47D): 4.11%; Positive Cytostatic Effect (cell lines with percent growth from 0 to 50 / total number of cell lines) [1]: 0/59; Positive Cytotoxic Effect (cell lines with percent growth of <0 / total number of cell lines) [1]: 0/59; Sensitive/Total Cell Lines [1]: 0/59; antiproliferative activity (in words) [1]: weak antiproliferative activity; Mean Growth Percent [1]: 0.10; inhibition at 10 µM [1]: -13 to 23.9%; melting point: 214 to 216 °C; inhibition at 10 µM (SNB-75): 13.1%
